Experimental findings from ChEMBL document CHEMBL1201862, “PubChem BioAssay data set” (2004) are described below.

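1) Cells in 96-well plates. 2) Compound, 48 h, 5 concentrations. 3) Linear interpolation between surrounding doses. 4) Unreached endpoint = highest concentration. GI50 is the concentration that inhibits growth by half.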 The source made the active and inactive calls. Rule as the data show it: active = GI50 up to about 1.1 µM and inactive = higher. Bounds are passed on as bounds.

What all share (assay): NCI-60 cell line screen, 48 h
The subject of assay [1] is DLD-1.
Assay [2] has as its system XF498.
The test system of assay [3] is DMS-273.
Assay [4] relates to KM-20L2.
Assay [5] relates to DMS-114.
Assay [6] concerns RXF 631.
Assay [7] relates to LXFL 529.
Assay [8] relates to SNB-78.
In assay [9] the test system is M19-MEL.

Regarding `Oc1ccc2c(O)cc(-c3ccccc3)nc2c1`, the GI50 in assay [1] is 18.3 µM (inactive); in [2] it was 25.1 µM (inactive); in [3] it was 28.1 µM (inactive); in assay [4] it was 19.9 µM (inactive); in assay [5], 18.7 µM (inactive); in assay [6], 30.5 µM (inactive). Besides, the GI50 in assay [7] was 26.5 µM (inactive); in [8] it was 48 µM (inactive); in [9], 19.5 µM (inactive).
Consider `COc1ccc(-c2c(N)[n+]([O-])c3ccccc3[n+]2[O-])cc1OC`, for which the GI50 was > 100 µM (inactive) in [1]; > 100 µM (inactive) in [3]; > 100 µM (inactive) in assay [4]; > 100 µM (inactive) in [5]; 86.3 µM (inactive) in [6]; > 100 µM (inactive) in [7]. The GI50 in assay [8] and in assay [9] was > 100 µM (inactive) in each case.
With `CN(C)c1ccc(C(=C(c2ccc(N(C)C)cc2)c2ccc(N(C)C)cc2)c2ccc(N(C)C)cc2)cc1`, the GI50 in [1] was 16.1 µM (inactive); in [3], 15.8 µM (inactive); in [4], 16.9 µM (inactive); in [5], 15.4 µM (inactive); in assay [6], 13.6 µM (inactive); in assay [7] it was 12.3 µM (inactive). Also, the figures for the GI50 in [8] and in assay [9] were 82.2 µM (inactive) and 26.5 µM (inactive), respectively.
On to `CCOP(=O)(OCC)C(C(=O)OC)C(=O)C(=O)Nc1cccc([N+](=O)[O-])c1` (centres undefined), for which the GI50 in [1], in [2], in assay [3], in assay [4], in assay [5] and in assay [6] was > 100 µM (inactive) in each case. Further, the GI50 in [7], in assay [8] and in [9] was > 100 µM (inactive) in each case.
For `Cc1c(Cl)ccc2c1NC(=O)C2(O)CC(=O)c1ccc2ccccc2c1` (centres undefined), the GI50 in assay [1] is 79.8 µM (inactive); in [2], > 100 µM (inactive); in assay [4], 69 µM (inactive); in assay [5], 21.1 µM (inactive); in [6], 57.1 µM (inactive).
In the case of `Cn1c2ccccc2c2cc(-c3ccccc3)c3c(c21)C(=O)c1ccccc1C3=O`, the GI50 in [1] was 13.3 µM (inactive); in [2], 14.6 µM (inactive); in assay [3], 17 µM (inactive); in [5], 12.5 µM (inactive); in [6] it was 34 µM (inactive); in [7], 14.3 µM (inactive). The results for the GI50 in assay [8] and in assay [9] were 15.1 µM (inactive) and 2.25 µM (inactive), respectively.
In the case of `Nc1ccn(CCNCCn2cnc3nc(N)[nH]c(=O)c32)c(=O)n1`, the GI50 in assay [1], in [2], in assay [4], in assay [5], in [6] and in [7] was > 100 µM (inactive) throughout. Besides, the GI50 in [8] is > 100 µM (inactive).
`Cc1ccc([N+](=O)[O-])cc1NC(=O)C(=O)Cc1nc2ccc(C(=O)c3ccccc3)cc2nc1O`: the GI50 in assay [1] was > 100 µM (inactive); in assay [2], > 100 µM (inactive); in [3], > 100 µM (inactive); in assay [4], > 100 µM (inactive); in [5] it was 90.6 µM (inactive); in assay [6] it was > 100 µM (inactive). For the same molecule, the GI50 in assay [7] and in [9] was > 100 µM (inactive) throughout.
With `C[n+]1c2n(c3nc(N)[nH]c(=O)c31)C1OC(C2)C(O)C1O` (centres undefined), the GI50 in assay [1], in [2], in assay [3], in [4], in [5] and in [6] was > 100 µM (inactive) in each case. Moreover, the GI50 in assay [7], in assay [8] and in [9] was > 100 µM (inactive) in each case.
`CCCCN(CCCC)CC(C(=O)Nc1ccc([N+](=O)[O-])cc1[N+](=O)[O-])/C(C)=N\NC(=O)c1ccncc1` (centres undefined): the GI50 in assay [1], in assay [2], in assay [3], in assay [4], in assay [5] and in assay [6] was > 100 µM (inactive) in each case. The GI50 in assay [7], in assay [8] and in [9] was > 100 µM (inactive) in each case.
For `CN(C)c1ccc(C(=C2C=CC(=[N+](C)C)C=C2)c2ccc(N(C)C)cc2)cc1` [GENTIAN VIOLET], the GI50 in assay [1] was 0.0673 µM (active); in [2], 0.0363 µM (active); in assay [3], 0.22 µM (active); in assay [4], 0.206 µM (active); in assay [5], 0.13 µM (active); in assay [6], 0.185 µM (active). Further, the GI50 is 0.0579 µM (active) in [7], 0.637 µM (active) in assay [8] and 0.173 µM (active) in assay [9].
